# According to US20240122179A1, “AUXINIC HERBICIDES AND METHODS OF USE THEREOF” (CORTEVA AGRISCIENCE LLC, priority 2021, published 2024):
# Where two headings read alike, the source gives them in different places.
# Legend:
# Kochia scoparia (KCHSC) = assay: Postemergence herbicide evaluation, percent reduction in plant size vs untreated control, 21 days after treatment; type: in vivo; details: Bassia scoparia, post-emergence, 504 h, KCHSC, postemergence, read-out: Control/Injury; for pest or weed control at 140 g/ha: rate 140 g ae/ha; for pest or weed control at 280 g/ha: rate 280 g ae/ha
# How it was run: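 Values are percent reduction in plant size against an untreated control, measured 21 days after a single postemergence spray at 140 or 280 g ae/ha (187 L/ha, 276 kPa). Treatments used 3-4 randomized complete-block replicates on 2 to 8 leaf-stage plants kept in a 25-28 °C greenhouse, with compounds in acetone/DMSO-based solvent containing crop oil and surfactant.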
# Amaranthus rudis (AMATA) = assay: as above; type: in vivo, Amaranthus rudis (tall water hemp); details: Amaranthus tuberculatus, post-emergence, 504 h, AMATA, postemergence, read-out: Control/Injury; for pest or weed control at 140 g/ha: rate 140 g ae/ha; for pest or weed control at 280 g/ha: rate 280 g ae/ha
# How it was run: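 Growth-reduction values are percent decrease in plant size relative to untreated plants, scored 21 days post-application. Amaranthus rudis (2-8 leaves) received postemergence sprays at 140 or 280 g ae/ha, 187 L/ha, in a mixed acetone/DMSO/water/isopropanol carrier with crop oil concentrate. Greenhouse conditions were 25-28° C, 50-60% RH; 3-4 randomized replicates.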
# Glycine max = assay: whole plant or invertebrate; details: for Control/Injury: in vivo; for plant injury at 140 g/ha / plant injury at 280 g/ha: Glycine max, post-emergence, 504 h, read-out: Control/Injury
# Description: Plants were grown in a soil media composed of 90% by volume Promix BX (Premier Tech Horticulture, Quakertown, PA) and 10% Profile Greens Grade (Profile Products LLC, Buffalo Grove, IL). Promix BX contains approximately 83% Sphagnum Peat Moss, 13% Perlite, 5% vermiculite, and proprietary amounts of limestone, starter fertilizer, and wetting agent. Profile Greens Grade is a sand-sized granule formed from calcining illite and montmorillonite clay. Several seeds of each species were planted in 10 cm square pots and top watered twice daily. Plant material was propagated in a warm greenhouse with temperature ranging from 25 to 28° C. and 50 to 60% relative humidity at the Corteva Global Headquarters (Indianapolis, Indiana, USA). Natural light was supplemented with 1000-watt metal halide overhead lamps with an average illumination of 500 μE m^−2 s^−1 photosynthetic active radiation for 16 consecutive hours each day. Plants were top-watered prior to herbicide application and sub-watered after herbicide application.
# Appropriate amounts of test materials were weighed out into glass vials in their technical form to deliver either 140 or 280 g acid equivalent (ae)/ha. The samples were dissolved in 3 ml of Solvent 1. Solvent 1 is 97% acetone and 3% dimethyl sulfoxide and serves as a general-purpose solvent (GPS) for dissolving technical materials. […] The samples were then diluted to their final concentration using 17 ml of solvent 2 for a total of 20 ml of spray solution. Solvent 2 contains 41.58% GPS, 45.53% water, 11.88% isopropyl alcohol, 0.99% crop oil concentrate and 0.02% Trition X-155 surfactant. All percentages are listed on a volume basis. Dicamba diglycolamine was applied as a formulated herbicide, Clarity™ and diluted with solvent 2 to compare all materials in the same spray solution.
# Herbicide applications were made to 3 to 4 replicates of each plant species at the 2 to 8 leaf stage, depending on the species. Treatments were applied with a research track-sprayer (Generation III Research Sprayer manufactured by DeVries Manufacturing in Hollandale, MN, USA) calibrated to deliver a spray volume of 187 L/ha. The track-sprayer was fitted with an 8003E nozzle from Spray Systems Company (North Avenue and Schmale Road, P.O. Box 7900, Wheaton, IL 60187), and used a spray pressure of 276 kPa pressure and a speed of 3.1 km/h. The nozzle height was 46 cm above the plant canopy. The experimental design used for the trials was a randomized complete block with 3 or 4 replications per treatment. After application, plants were placed on carts according to the randomization and returned to the greenhouse. Plants were sub-watered after treatment with Indianapolis city water or fertilized three times a week with a commercial fertilizer solution (Jack's Professional 15-5-15 4 Ca 2 Mg fertilizer (manufactured by JR PETERS INC., 6656 Grant Way, Allentown, PA 18106; www.jrpeters.com). Percent visual control assessments were made on a scale of 0 to 100% (where 0 was no control and 100 was complete plant death) at 7, 14, and 21 days after treatment.
# In conformity with the methods outlined in Example 49, the effect of representative experimental compounds on the growth of Glycine max was determined at 2 different levels (respectively, 140 and 280 g acid equivalent (ae)/ha) of the experimental actives tested. Plants were treated with one of the compounds, a control plant was not treated. Twenty-one days after treatment, the plants were measured. The data is present as a percent reduction in plant size relative to the untreated control.
# [1] = system: Amaranthus palmeri (AMAPA); assay: Postemergence herbicide evaluation, percent reduction in plant size vs untreated control, 21 days after treatment; type: in vivo, Amaranthus palmeri (Palmer amaranth); details: post-emergence, 504 h, R-AMAPA, postemergence, percent reduction vs untreated control, 21 days after treatment, read-out: Control/Injury; for pest or weed control at 140 g/ha: rate 140 g ae/ha; for pest or weed control at 280 g/ha: rate 280 g ae/ha
# How it was run: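 Percent reduction in plant size relative to untreated plants, measured 21 days after track-sprayer application (187 L/ha) of 140 or 280 g ae/ha to Amaranthus palmeri at the 2 to 8 leaf stage. Randomized complete block, 3 or 4 replicates, greenhouse at 25 to 28° C; spray solution acetone/DMSO with isopropanol, water and crop oil concentrate.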
# [2] = system: Conyza canadensis (L.) (ERICA); assay: as above; type: in vivo, Conyza canadensis (L.) (Horseweed); details: Erigeron canadensis, post-emergence, 504 h, ERICA, postemergence, 21 days after treatment, read-out: Control/Injury; for pest or weed control at 140 g/ha: rate 140 g ae/ha; for pest or weed control at 280 g/ha: rate 280 g ae/ha
# How it was run: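 Track-sprayer applications (187 L/ha, 276 kPa) of 140 or 280 g ae/ha, technical material dissolved in acetone/DMSO then diluted with crop oil and surfactant-containing solvent, to greenhouse Conyza canadensis at 2-8 leaves. After 21 days, size reduction relative to untreated plants was recorded; 3-4 randomized replicates.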
# [3] = system: Ambrosia artemisiifolia (AMBEL); assay: as above; type: in vivo, Ambrosia artemisiifolia (common ragweed); details: post-emergence, 504 h, AMBEL, postemergence, read-out: Control/Injury; for pest or weed control at 140 g/ha: rate 140 g ae/ha; for pest or weed control at 280 g/ha: rate 280 g ae/ha
# How it was run: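 Test compounds at 140 or 280 g ae/ha were applied by track sprayer (187 L/ha, spray solution containing acetone/DMSO, isopropanol, crop oil, surfactant) to 2–8 leaf plants, 3–4 replicates. Plants were kept in a greenhouse at 25–28 °C. Size reduction was scored against untreated controls at 21 days.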
# [4] = percent reduction vs untreated, 21 days after treatment
# [5] = percent reduction vs untreated control, 21 days after treatment
# [6] = percent reduction vs untreated control
SMILES,pest or weed control at 140 g/ha (Kochia scoparia (KCHSC); [4]) [%],pest or weed control at 280 g/ha (Kochia scoparia (KCHSC); [4]) [%],pest or weed control at 140 g/ha (Amaranthus rudis (AMATA)) [%],pest or weed control at 280 g/ha (Amaranthus rudis (AMATA)) [%],Control/Injury (Glycine max),pest or weed control at 140 g/ha [1] [%],pest or weed control at 280 g/ha [1] [%],pest or weed control at 140 g/ha ([2]; percent reduction vs untreated) [%],pest or weed control at 280 g/ha ([2]; percent reduction vs untreated) [%],pest or weed control at 140 g/ha [3] [%],pest or weed control at 280 g/ha [3] [%],pest or weed control at 140 g/ha (Kochia scoparia (KCHSC); [5]) [%],pest or weed control at 280 g/ha (Kochia scoparia (KCHSC); [5]) [%],plant injury at 140 g/ha (Glycine max) [%],plant injury at 280 g/ha (Glycine max) [%],"pest or weed control at 140 g/ha [2, 6] [%]","pest or weed control at 280 g/ha [2, 6] [%]",pest or weed control at 140 g/ha (Kochia scoparia (KCHSC)) [%],pest or weed control at 280 g/ha (Kochia scoparia (KCHSC)) [%]
COc1c(Cl)ccc(Cl)c1C(=O)O/N=C(\N)CCCCC/C(N)=N/OC(=O)c1c(Cl)ccc(Cl)c1OC [Compound A-146],89,96,70,63,0,43,60,73,63,83,86,,,,,,,,
COc1c(Cl)ccc(Cl)c1C(=O)O/N=C/c1cccc(/C=N/OC(=O)c2c(Cl)ccc(Cl)c2OC)c1 [Compound A-143],88,88,73,48,0,70,64,80,93,86,86,,,,,,,,
CC/C(C)=N/OC(=O)c1c(Cl)ccc(Cl)c1OC [Compound A-91],,,72,78,,72,88,,,82,96,78,98,3,3,85,88,,
CCCCCC(=O)NOC(=O)c1c(Cl)ccc(Cl)c1OC [Compound A-80],,,33,38,,20,35,,,63,62,13,22,2,4,20,23,,
COc1c(Cl)ccc(Cl)c1C(=O)ON(C)C(=O)Nc1ccccc1 [Compound A-75],,,58,85,,73,91,,,82,88,,,3,3,72,73,88,97
